Literature values in PMC10443619 (ACS chemical biology, 2023).

Tests used:
[1] = system: tau
[2] = system: tau; settings: compared with MKT-077
[3] = system: tau; settings: compared with YM-01
[4] = not given; remark: listed apart in the source

Substance	blood-brain permeability	pathogenic tau in ex vivo brain slices ([1]; transgenic rTg4510 mice)	potency to prevent tau accumulation in HeLaC3 cells [2]	total tau in organotypic brain slices ([1]; rTg4510 mice)	potency to prevent cellular tau accumulation [3]	half-life (t1/2) [4] [min]
YM-01	lacked detectable blood-brain permeability	reduced pathogenic tau	enhanced the potency to prevent tau accumulation			
JG-98				reduced total tau	greater potency to prevent cellular tau accumulation than YM-01	37
